Data reported in patent US20170304400A1, “METHODS FOR PREVENTING FIBROSIS USING CXCR4 AND/OR CXCR7 BINDING AGENTS” (ViCapsys.Inc, priority 2016, published 2017).

Test system: non-human primate (NHP)
Assay: Intraperitoneal implant of alginate microbeads in non-human primates: surgical inspection, lavage recovery and biopsy histopathology
Type: in vivo
Protocol: In the first non-human primate (NHP) study with alginate microbeads, two animals received intraperitoneal implants of ˜400,000 microbeads each of (1.6% calcium LVM) alginate containing either 1 μg/ml of recombinant human CXCL12 (“CXCL12^+”) or not (“CXCL12”). Microbeads were prepared using a vibrational encapsulation method using a 200 μm nozzle. Microbeads were on average 426-427 μm in diameter with an error of the mean of approximately 10-15%. The diameter was measured after 2 hours in culture media. Microbeads swell 30-40% after transfer into some media or after implantation. Median roundness was less than the desirable 0.90, ranging from 0.78 in the CXCL12^− microbeads (FIG. 1) to 0.80 in the CXCL12^+ (FIG. 2), but with a skew in roundness reflecting a small but significant number of non-round beads. Microbeads were delivered in a blinded manner to operators. During the implant, primate 0715 received the CXCL12^− implant; primate 1715 received the CXCL12^+ implant. Both animals were implanted using a minimally invasive technique featuring placement of beads in 30 cc of 300 mOsmolar calcium chloride solution in the intraperitoneal space and explanted surgically. Neither of the procedures was eventful. Both animals appeared healthy during the entire period of four weeks following the implantation procedure. The explant procedure for each animal involved surgical opening of the peritoneal cavity, visual inspection of all regions of the mesentery and abdomen/pelvis for bead position, lavage with 100 cc of N-saline to recover free microbeads and peritoneal fluid, and biopsy of tissues where microbeads appeared to be embedded in the tissue. Evaluation was done at 30, 90, and 180 days. Arrows point to adhesions.

With “CXCL12: chemokine CXCL12 (also called SDF-1); recombinant human CXCL12 used in the microbeads” the “adhesions following surgery or explantation of the capsules” value (CXCL12 applied into the intraperitoneal cavity in alginate capsules) was “no adhesions”, the “long-term appearance of the peritoneum / surgical adhesions” value (later timepoints (day 90 and day 180), compared to CXCL12^- NHP) was “more normal and without surgical adhesions” and the “foreign body responses to embedded microbeads” value (through 90 days) was “spare embedded microbeads from foreign body responses”.
